Experimental data reported in patent US8758816B2, “Compositions comprising azelastine and methods of use thereof” (priority 2004, dated 2014).

Test system: patients with seasonal allergic rhinitis (SAR)
Assay: MP 428 study: individual symptom severity scores (runny nose, itchy nose, sneezing, congestion; 0-3 scale)
Format: in vivo, human
Conditions: Intent-to-Treat Population
Experimental: A two-week, randomized, double-blind study, which evaluated the effects of the co-administration of ASTELIN® (azelastine hydrochloride (HCl)) and FLONASE® (fluticasone propionate) compared to either product alone in patients with seasonal allergic rhinitis (SAR) was conducted during the 2006 Texas mountain cedar season. After a 5-day placebo lead-in period, 151 patients with moderate-to-severe allergic rhinitis symptoms were randomized to either: (1) (49 total patients) ASTELIN® (azelastine hydrochloride (HCl)) plus placebo saline nasal spray 2 sprays per nostril, 15 minutes apart, twice daily (AM & PM); (2) (50 total patients) FLONASE® (fluticasone propionate) plus placebo saline nasal spray, 2 sprays per nostril, 15 minutes apart, once daily (AM) and two sessions of placebo saline nasal spray, 2 sprays per nostril, 15 minutes apart (PM); or (3) (52 total patients) the co-administration of ASTELIN® (azelastine hydrochloride (HCl)) 2 sprays per nostril plus FLONASE® (fluticasone propionate) 2 sprays per nostril (AM), 15 minutes apart, and ASTELIN® (azelastine hydrochloride (HCl)) 2 sprays per nostril plus placebo saline nasal spray, 15 minutes apart, (PM) for a 2-week double-blind treatment period.
The primary efficacy variable was the change from baseline in the Total Nasal Symptom Score (TNSS), which comprised sneezing, itchy nose, runny nose, and nasal congestion (individual symptoms scores were assigned a value between 0 and 3, where 0=no symptoms and 3=severe symptoms). This study was not statistically designed to assess the differences between ASTELIN® and FLONASE®.
The results of the clinical trial are summarized and presented in Appendix A hereinbelow and in FIGS. 1-6. […] FIGS. 2-5 show the mean improvement in severity score (0-3 scale) from baseline for the symptoms of runny nose, itchy nose, sneezing and congestion, respectively.

SMILES: CCC(=O)O[C@]1(C(=O)SCF)[C@H](C)C[C@H]2[C@@H]3C[C@H](F)C4=CC(=O)C=C[C@]4(C)[C@@]3(F)[C@@H](O)C[C@@]21C [Fluticasone, fluticasone propionate]
- Change from Baseline in AM and PM Combined Nasal Symptom Score: Congestion, LS Mean (Day 9): −1.19
- Change from Baseline in AM and PM Combined Nasal Symptom Score: Congestion, Mean (Day 9): −1.22
- Change from Baseline in AM and PM Combined Nasal Symptom Score: Congestion, Median (Day 9): −1.27
- Change from Baseline in AM and PM Combined Nasal Symptom Score: Itchy Nose, LS Mean (Day 9): −1.40
- Change from Baseline in AM and PM Combined Nasal Symptom Score: Itchy Nose, Mean (Day 9): −1.35
- Change from Baseline in AM and PM Combined Nasal Symptom Score: Itchy Nose, Median (Day 9): −1.30
- Change from Baseline in AM and PM Combined Nasal Symptom Score: Runny Nose, LS Mean (Day 9): −1.18
- Change from Baseline in AM and PM Combined Nasal Symptom Score: Runny Nose, Mean (Day 9): −1.21
- Change from Baseline in AM and PM Combined Nasal Symptom Score: Runny Nose, Median (Day 9): −1.00
- Change from Baseline in AM and PM Combined Nasal Symptom Score: Sneezing, LS Mean (Day 9): −1.40
- Change from Baseline in AM and PM Combined Nasal Symptom Score: Sneezing, Mean (Day 9): −1.29
- Change from Baseline in AM and PM Combined Nasal Symptom Score: Sneezing, Median (Day 9): −1.40
- Percent Change from Baseline in AM and PM Combined Nasal Symptom Score: Congestion, LS Mean (Day 9): −22.17%
- Percent Change from Baseline in AM and PM Combined Nasal Symptom Score: Congestion, Mean (Day 9): −22.28%
- Percent Change from Baseline in AM and PM Combined Nasal Symptom Score: Congestion, Median (Day 9): −24.05%
- Percent Change from Baseline in AM and PM Combined Nasal Symptom Score: Itchy Nose, LS Mean (Day 9): −29.96%
- Percent Change from Baseline in AM and PM Combined Nasal Symptom Score: Itchy Nose, Mean (Day 9): −28.73%
- Percent Change from Baseline in AM and PM Combined Nasal Symptom Score: Itchy Nose, Median (Day 9): −31.23%
- Percent Change from Baseline in AM and PM Combined Nasal Symptom Score: Runny Nose, LS Mean (Day 9): −18.79%
- Percent Change from Baseline in AM and PM Combined Nasal Symptom Score: Runny Nose, Mean (Day 9): −19.22%
- Percent Change from Baseline in AM and PM Combined Nasal Symptom Score: Runny Nose, Median (Day 9): −16.67%
- Percent Change from Baseline in AM and PM Combined Nasal Symptom Score: Sneezing, LS Mean (Day 9): −29.73%
- Percent Change from Baseline in AM and PM Combined Nasal Symptom Score: Sneezing, Mean (Day 9): −28.22%
- Percent Change from Baseline in AM and PM Combined Nasal Symptom Score: Sneezing, Median (Day 9): −32.58%
- Change from Baseline in AM and PM Combined Nasal Symptom Score: Congestion, LS Mean (Day 10): −1.34
- Change from Baseline in AM and PM Combined Nasal Symptom Score: Congestion, Mean (Day 10): −1.39
- Change from Baseline in AM and PM Combined Nasal Symptom Score: Congestion, Median (Day 10): −1.50
- Change from Baseline in AM and PM Combined Nasal Symptom Score: Itchy Nose, LS Mean (Day 10): −1.21
- Change from Baseline in AM and PM Combined Nasal Symptom Score: Itchy Nose, Mean (Day 10): −1.19
- Change from Baseline in AM and PM Combined Nasal Symptom Score: Itchy Nose, Median (Day 10): −1.00
- Change from Baseline in AM and PM Combined Nasal Symptom Score: Runny Nose, LS Mean (Day 10): −1.52
- Change from Baseline in AM and PM Combined Nasal Symptom Score: Runny Nose, Mean (Day 10): −1.54
- Change from Baseline in AM and PM Combined Nasal Symptom Score: Runny Nose, Median (Day 10): −1.45
- Change from Baseline in AM and PM Combined Nasal Symptom Score: Sneezing, LS Mean (Day 10): −1.57
- Change from Baseline in AM and PM Combined Nasal Symptom Score: Sneezing, Mean (Day 10): −1.50
- Change from Baseline in AM and PM Combined Nasal Symptom Score: Sneezing, Median (Day 10): −1.58
- Percent Change from Baseline in AM and PM Combined Nasal Symptom Score: Congestion, LS Mean (Day 10): −24.97%
- Percent Change from Baseline in AM and PM Combined Nasal Symptom Score: Congestion, Mean (Day 10): −25.31%
- Percent Change from Baseline in AM and PM Combined Nasal Symptom Score: Congestion, Median (Day 10): −27.27%
- Percent Change from Baseline in AM and PM Combined Nasal Symptom Score: Itchy Nose, LS Mean (Day 10): −23.04%
- Percent Change from Baseline in AM and PM Combined Nasal Symptom Score: Itchy Nose, Mean (Day 10): −22.79%
- Percent Change from Baseline in AM and PM Combined Nasal Symptom Score: Itchy Nose, Median (Day 10): −18.99%
- Percent Change from Baseline in AM and PM Combined Nasal Symptom Score: Runny Nose, LS Mean (Day 10): −26.05%
- Percent Change from Baseline in AM and PM Combined Nasal Symptom Score: Runny Nose, Mean (Day 10): −26.39%
- Percent Change from Baseline in AM and PM Combined Nasal Symptom Score: Runny Nose, Median (Day 10): −29.13%
- Percent Change from Baseline in AM and PM Combined Nasal Symptom Score: Sneezing, LS Mean (Day 10): −31.65%
- Percent Change from Baseline in AM and PM Combined Nasal Symptom Score: Sneezing, Mean (Day 10): −31.17%
- Percent Change from Baseline in AM and PM Combined Nasal Symptom Score: Sneezing, Median (Day 10): −33.33%
- Change from Baseline in AM and PM Combined Nasal Symptom Score: Congestion, LS Mean (Day 11): −1.22
- Change from Baseline in AM and PM Combined Nasal Symptom Score: Congestion, Mean (Day 11): −1.28
- Change from Baseline in AM and PM Combined Nasal Symptom Score: Congestion, Median (Day 11): −1.27
- Change from Baseline in AM and PM Combined Nasal Symptom Score: Itchy Nose, LS Mean (Day 11): −1.33
- Change from Baseline in AM and PM Combined Nasal Symptom Score: Itchy Nose, Mean (Day 11): −1.29
- Change from Baseline in AM and PM Combined Nasal Symptom Score: Itchy Nose, Median (Day 11): −1.08
- Change from Baseline in AM and PM Combined Nasal Symptom Score: Runny Nose, LS Mean (Day 11): −1.51
- Change from Baseline in AM and PM Combined Nasal Symptom Score: Runny Nose, Mean (Day 11): −1.54
- Change from Baseline in AM and PM Combined Nasal Symptom Score: Runny Nose, Median (Day 11): −1.42
- Change from Baseline in AM and PM Combined Nasal Symptom Score: Sneezing, LS Mean (Day 11): −1.78
- Change from Baseline in AM and PM Combined Nasal Symptom Score: Sneezing, Mean (Day 11): −1.66
- Change from Baseline in AM and PM Combined Nasal Symptom Score: Sneezing, Median (Day 11): −1.83
- Percent Change from Baseline in AM and PM Combined Nasal Symptom Score: Congestion, LS Mean (Day 11): −22.54%
- Percent Change from Baseline in AM and PM Combined Nasal Symptom Score: Congestion, Mean (Day 11): −23.45%
- Percent Change from Baseline in AM and PM Combined Nasal Symptom Score: Congestion, Median (Day 11): −24.05%
- Percent Change from Baseline in AM and PM Combined Nasal Symptom Score: Itchy Nose, LS Mean (Day 11): −26.56%
- Percent Change from Baseline in AM and PM Combined Nasal Symptom Score: Itchy Nose, Mean (Day 11): −25.70%
- Percent Change from Baseline in AM and PM Combined Nasal Symptom Score: Itchy Nose, Median (Day 11): −27.36%
- Percent Change from Baseline in AM and PM Combined Nasal Symptom Score: Runny Nose, LS Mean (Day 11): −31.56%
- Percent Change from Baseline in AM and PM Combined Nasal Symptom Score: Runny Nose, Mean (Day 11): −31.74%
- Percent Change from Baseline in AM and PM Combined Nasal Symptom Score: Runny Nose, Median (Day 11): −33.33%
- Percent Change from Baseline in AM and PM Combined Nasal Symptom Score: Sneezing, LS Mean (Day 11): −35.11%
- Percent Change from Baseline in AM and PM Combined Nasal Symptom Score: Sneezing, Mean (Day 11): −33.52%
- Percent Change from Baseline in AM and PM Combined Nasal Symptom Score: Sneezing, Median (Day 11): −36.05%
- Change from Baseline in AM and PM Combined Nasal Symptom Score: Congestion, LS Mean (Day 12): −1.41
- Change from Baseline in AM and PM Combined Nasal Symptom Score: Congestion, Mean (Day 12): −1.49
- Change from Baseline in AM and PM Combined Nasal Symptom Score: Congestion, Median (Day 12): −1.55
- Change from Baseline in AM and PM Combined Nasal Symptom Score: Itchy Nose, LS Mean (Day 12): −1.50
- Change from Baseline in AM and PM Combined Nasal Symptom Score: Itchy Nose, Mean (Day 12): −1.48
- Change from Baseline in AM and PM Combined Nasal Symptom Score: Itchy Nose, Median (Day 12): −1.17
- Change from Baseline in AM and PM Combined Nasal Symptom Score: Runny Nose, LS Mean (Day 12): −1.54
- Change from Baseline in AM and PM Combined Nasal Symptom Score: Runny Nose, Mean (Day 12): −1.58
- Change from Baseline in AM and PM Combined Nasal Symptom Score: Runny Nose, Median (Day 12): −1.35
- Change from Baseline in AM and PM Combined Nasal Symptom Score: Sneezing, LS Mean (Day 12): −1.68
- Change from Baseline in AM and PM Combined Nasal Symptom Score: Sneezing, Mean (Day 12): −1.54
- Change from Baseline in AM and PM Combined Nasal Symptom Score: Sneezing, Median (Day 12): −1.80
